Assay results published in the supplement of paper PMC10307832.

Key:
Experiment in all cases: relative viability (nuclei count vs DMSO), 5 days (fraction); higher = more cells survive
[1] = compound: CC1=CC=C(C=C1)C(=O)CN2C3=C(CCCC3)SC2=N [Pifithrin_alpha] + Cc1nc(NC(=O)N2CCC[C@H]2C(N)=O)sc1-c1ccnc(C(C)(C)C(F)(F)F)c1 [Alpelisib] (partner 2 µM)
How it was run: (§1)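 Relative viability is defined as nuclei in treated wells over nuclei in vehicle wells. Duplicate plates were run and medians reported. Lung cancer cell lines in 1536-well plates were dosed by pin tool one day after seeding, with one drug or with a fixed anchor-drug dose plus five library-drug doses (not always all listed) in √10 steps, and nuclei were counted after 5 days.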

[2] = compound: CNC(=O)c1ccccc1Sc1ccc2c(/C=C/c3ccccn3)n[nH]c2c1 [Axitinib] + CC(=O)Nc1cccc(-n2c(=O)n(C3CC3)c(=O)c3c(Nc4ccc(I)cc4F)n(C)c(=O)c(C)c32)c1 [Trametinib] (partner 0.02 µM)
How it was run: as §1

[3] = compound: CNC(=O)c1ccccc1Sc1ccc2c(/C=C/c3ccccn3)n[nH]c2c1 [Axitinib] + O=C(c1cc(Cc2n[nH]c(=O)c3ccccc23)ccc1F)N1CCN(C(=O)C2CC2)CC1 [Olaparib] (partner 8 µM)
How it was run: as §1

[4] = compound: Nc1nc(Nc2ccc3c(c2)CC[C@@H](N2CCCC2)CC3)nn1-c1cc2c(nn1)-c1ccccc1CCC2 [Bemcentinib] + CS(=O)(=O)CCNCc1ccc(-c2ccc3ncnc(Nc4ccc(OCc5cccc(F)c5)c(Cl)c4)c3c2)o1 [Lapatinib] (partner 2 µM)
How it was run: as §1

201T
relative viability ([1]; first compound 1 µM): 1.04 | relative viability ([1]; first compound 3.162 µM): 0.83 | relative viability ([1]; first compound 10 µM): 0.792 | relative viability ([1]; first compound 31.62 µM): 0.81 | relative viability ([1]; first compound 100 µM): 0.79 | relative viability ([2]; first compound 0.005 µM): 0.715 | relative viability ([2]; first compound 0.01581 µM): 0.682 | relative viability ([2]; first compound 0.05 µM): 0.711 | relative viability ([2]; first compound 0.1581 µM): 0.713 | relative viability ([2]; first compound 0.5 µM): 0.732 | relative viability ([3]; first compound 0.005 µM): 0.861 | relative viability ([3]; first compound 0.01581 µM): 0.805 | relative viability ([3]; first compound 0.05 µM): 0.795 | relative viability ([3]; first compound 0.1581 µM): 0.859 | relative viability ([3]; first compound 0.5 µM): 0.875 | relative viability ([4]; first compound 0.04 µM): 1 | relative viability ([4]; first compound 0.1265 µM): 1.02 | relative viability ([4]; first compound 0.4 µM): 1.02 | relative viability ([4]; first compound 1.265 µM): 1.03 | relative viability ([4]; first compound 4 µM): 1.06

A549
relative viability ([1]; first compound 1 µM): 0.895 | relative viability ([1]; first compound 3.162 µM): 0.777 | relative viability ([1]; first compound 10 µM): 0.644 | relative viability ([1]; first compound 31.62 µM): 0.698 | relative viability ([1]; first compound 100 µM): 0.799 | relative viability ([3]; first compound 0.005 µM): 0.471 | relative viability ([3]; first compound 0.01581 µM): 0.36 | relative viability ([3]; first compound 0.05 µM): 0.373 | relative viability ([3]; first compound 0.1581 µM): 0.327 | relative viability ([3]; first compound 0.5 µM): 0.412 | relative viability ([4]; first compound 0.04 µM): 0.954 | relative viability ([4]; first compound 0.1265 µM): 0.999 | relative viability ([4]; first compound 0.4 µM): 1.14 | relative viability ([4]; first compound 1.265 µM): 0.956 | relative viability ([4]; first compound 4 µM): 1.02

A-427
relative viability ([1]; first compound 1 µM): 0.756 | relative viability ([1]; first compound 3.162 µM): 1.04 | relative viability ([1]; first compound 10 µM): 1.03 | relative viability ([1]; first compound 31.62 µM): 0.836 | relative viability ([1]; first compound 100 µM): 1 | relative viability ([2]; first compound 0.005 µM): 0.89 | relative viability ([2]; first compound 0.01581 µM): 0.711 | relative viability ([2]; first compound 0.05 µM): 0.758 | relative viability ([2]; first compound 0.1581 µM): 0.761 | relative viability ([2]; first compound 0.5 µM): 0.879 | relative viability ([3]; first compound 0.005 µM): 0.778 | relative viability ([3]; first compound 0.01581 µM): 0.843 | relative viability ([3]; first compound 0.05 µM): 0.803 | relative viability ([3]; first compound 0.1581 µM): 0.753 | relative viability ([3]; first compound 0.5 µM): 1.01 | relative viability ([4]; first compound 0.1265 µM): 0.959 | relative viability ([4]; first compound 0.4 µM): 1.06 | relative viability ([4]; first compound 1.265 µM): 1.09 | relative viability ([4]; first compound 4 µM): 1.03

ABC-1
relative viability ([1]; first compound 1 µM): 0.945 | relative viability ([1]; first compound 3.162 µM): 0.983 | relative viability ([1]; first compound 10 µM): 0.732 | relative viability ([1]; first compound 31.62 µM): 0.682 | relative viability ([1]; first compound 100 µM): 0.661 | relative viability ([3]; first compound 0.005 µM): 0.735 | relative viability ([3]; first compound 0.05 µM): 0.659 | relative viability ([3]; first compound 0.1581 µM): 0.974 | relative viability ([3]; first compound 0.5 µM): 0.78 | relative viability ([4]; first compound 0.04 µM): 1.33 | relative viability ([4]; first compound 0.1265 µM): 1.36 | relative viability ([4]; first compound 0.4 µM): 1.33 | relative viability ([4]; first compound 1.265 µM): 0.998 | relative viability ([4]; first compound 4 µM): 1.26

BEN
relative viability ([1]; first compound 1 µM): 1.01 | relative viability ([1]; first compound 3.162 µM): 1.19 | relative viability ([1]; first compound 10 µM): 1.14 | relative viability ([1]; first compound 31.62 µM): 0.965 | relative viability ([1]; first compound 100 µM): 1.22 | relative viability ([2]; first compound 0.005 µM): 1.33 | relative viability ([2]; first compound 0.01581 µM): 1.04 | relative viability ([2]; first compound 0.05 µM): 0.885 | relative viability ([2]; first compound 0.1581 µM): 0.992 | relative viability ([2]; first compound 0.5 µM): 1.01 | relative viability ([3]; first compound 0.005 µM): 1.17 | relative viability ([3]; first compound 0.01581 µM): 1.42 | relative viability ([3]; first compound 0.05 µM): 0.903 | relative viability ([3]; first compound 0.1581 µM): 1.02 | relative viability ([3]; first compound 0.5 µM): 1.07 | relative viability ([4]; first compound 0.04 µM): 0.488 | relative viability ([4]; first compound 0.1265 µM): 0.844 | relative viability ([4]; first compound 0.4 µM): 0.807 | relative viability ([4]; first compound 1.265 µM): 0.531 | relative viability ([4]; first compound 4 µM): 0.734

CAL-12T
relative viability ([1]; first compound 3.162 µM): 1.04 | relative viability ([1]; first compound 10 µM): 0.971 | relative viability ([1]; first compound 31.62 µM): 0.736 | relative viability ([1]; first compound 100 µM): 1.13 | relative viability ([2]; first compound 0.005 µM): 0.401 | relative viability ([2]; first compound 0.01581 µM): 0.311 | relative viability ([2]; first compound 0.05 µM): 0.336 | relative viability ([2]; first compound 0.1581 µM): 0.288 | relative viability ([2]; first compound 0.5 µM): 0.338 | relative viability ([3]; first compound 0.005 µM): 0.736 | relative viability ([3]; first compound 0.01581 µM): 0.716 | relative viability ([3]; first compound 0.05 µM): 0.736 | relative viability ([3]; first compound 0.1581 µM): 0.698 | relative viability ([3]; first compound 0.5 µM): 0.701 | relative viability ([4]; first compound 0.04 µM): 0.556 | relative viability ([4]; first compound 0.1265 µM): 0.598 | relative viability ([4]; first compound 0.4 µM): 0.599 | relative viability ([4]; first compound 1.265 µM): 0.597 | relative viability ([4]; first compound 4 µM): 0.652

COR-L23
relative viability ([1]; first compound 1 µM): 0.857 | relative viability ([1]; first compound 3.162 µM): 0.849 | relative viability ([1]; first compound 10 µM): 0.931 | relative viability ([1]; first compound 100 µM): 0.663 | relative viability ([2]; first compound 0.005 µM): 0.693 | relative viability ([2]; first compound 0.01581 µM): 0.623 | relative viability ([2]; first compound 0.05 µM): 0.785 | relative viability ([2]; first compound 0.1581 µM): 0.527 | relative viability ([2]; first compound 0.5 µM): 0.656 | relative viability ([3]; first compound 0.005 µM): 0.367 | relative viability ([3]; first compound 0.01581 µM): 0.376 | relative viability ([3]; first compound 0.05 µM): 0.326 | relative viability ([3]; first compound 0.1581 µM): 0.363 | relative viability ([3]; first compound 0.5 µM): 0.387 | relative viability ([4]; first compound 0.04 µM): 1.18 | relative viability ([4]; first compound 0.1265 µM): 0.997 | relative viability ([4]; first compound 0.4 µM): 1.14 | relative viability ([4]; first compound 1.265 µM): 1.05 | relative viability ([4]; first compound 4 µM): 1.02

COR-L 105
relative viability ([1]; first compound 1 µM): 0.948 | relative viability ([1]; first compound 3.162 µM): 0.909 | relative viability ([1]; first compound 10 µM): 0.902 | relative viability ([1]; first compound 31.62 µM): 0.683 | relative viability ([1]; first compound 100 µM): 0.768 | relative viability ([2]; first compound 0.005 µM): 0.478 | relative viability ([2]; first compound 0.01581 µM): 0.414 | relative viability ([2]; first compound 0.05 µM): 0.446 | relative viability ([2]; first compound 0.1581 µM): 0.452 | relative viability ([2]; first compound 0.5 µM): 0.466 | relative viability ([3]; first compound 0.005 µM): 0.805 | relative viability ([3]; first compound 0.01581 µM): 0.721 | relative viability ([3]; first compound 0.05 µM): 0.647 | relative viability ([3]; first compound 0.1581 µM): 0.962 | relative viability ([3]; first compound 0.5 µM): 0.797 | relative viability ([4]; first compound 0.04 µM): 0.311 | relative viability ([4]; first compound 0.1265 µM): 0.327 | relative viability ([4]; first compound 0.4 µM): 0.416 | relative viability ([4]; first compound 1.265 µM): 0.338 | relative viability ([4]; first compound 4 µM): 0.394

Calu-6
relative viability ([1]; first compound 1 µM): 0.884 | relative viability ([1]; first compound 3.162 µM): 0.918 | relative viability ([1]; first compound 10 µM): 0.961 | relative viability ([1]; first compound 31.62 µM): 0.622 | relative viability ([1]; first compound 100 µM): 0.857 | relative viability ([3]; first compound 0.005 µM): 0.554 | relative viability ([3]; first compound 0.01581 µM): 0.605 | relative viability ([3]; first compound 0.05 µM): 0.607 | relative viability ([3]; first compound 0.1581 µM): 0.555 | relative viability ([3]; first compound 0.5 µM): 0.681 | relative viability ([4]; first compound 0.04 µM): 1.02 | relative viability ([4]; first compound 0.1265 µM): 1.25 | relative viability ([4]; first compound 0.4 µM): 1.34 | relative viability ([4]; first compound 1.265 µM): 1.13 | relative viability ([4]; first compound 4 µM): 1.11
